# Where two headings read alike, the source gives them in different places. Numbered stars: 1 amine (or outer) side, 2 acyl side, 3 side chain; on linkers, the order of the positions; unused ones are H or OH. Bridge positions count the residues as written; N and C are the ends. Square brackets hold non-standard residues; d marks the D form. Peptide text beside a SMILES is read from it. * marks the point of attachment. C20 diacid = O=C(O)CCCCCCCCCCCCCCCCCCC(=O)*; γGlu = O=C(O)[C@H](CCC(=O)[*:2])N[*:1]; NMeI = CC[C@H](C)[C@H](NC)C(=O)O; Sar = CNCC(=O)O
# Legend:
# [1] = biological target: T1, human calcitonin receptor (hCTR2) (Homo sapiens, UniProt P30988); assay: hCTR2 assay: induction of cAMP (AlphaScreen cAMP Assay kit) in COS7 cells expressing hCTR2; format: cell-based
# T1 construct: expressed in transfected cells
# T1 sequence (P30988 25-474): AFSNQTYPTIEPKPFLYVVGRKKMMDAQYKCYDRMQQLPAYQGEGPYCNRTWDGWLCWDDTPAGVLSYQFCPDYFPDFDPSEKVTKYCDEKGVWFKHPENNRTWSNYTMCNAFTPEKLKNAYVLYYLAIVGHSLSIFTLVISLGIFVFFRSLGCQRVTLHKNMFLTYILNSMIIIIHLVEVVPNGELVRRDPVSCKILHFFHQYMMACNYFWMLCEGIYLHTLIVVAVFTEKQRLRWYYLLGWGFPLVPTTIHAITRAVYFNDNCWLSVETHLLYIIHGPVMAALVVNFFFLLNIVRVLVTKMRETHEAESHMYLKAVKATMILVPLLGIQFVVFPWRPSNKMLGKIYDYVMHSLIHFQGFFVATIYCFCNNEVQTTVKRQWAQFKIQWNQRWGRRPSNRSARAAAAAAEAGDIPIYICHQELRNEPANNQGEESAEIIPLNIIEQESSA
# Procedure, shortened: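 COS7 stable hCTR2 clone (RAMP-free); peptide dose-response 15 min 37° C in Tyrode pH 7.4 + 100 µM IBMX + 0.1% casein; lysis 10 min RT; AlphaScreen cAMP; 4PL fit.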
# [2] = Solubility assessment (turbidity absorbance at 325 nm); format: physicochemical; details: stock 2 mg/ml diluted 1:1, ambient temperature (typically 25°C), n=1; for Solubility, Acetate buffer pH 4: 100 mM acetate buffer pH 4.0; for Solubility, Acetate buffer pH 5: 100 mM acetate buffer pH 5.0; for Solubility, Histidine buffer pH 6: 100 mM histidine buffer pH 6.0; for Solubility, Histidine buffer pH 7: 100 mM histidine buffer pH 7.0; for Solubility, Phosphate buffer pH 6: 100 mM phosphate buffer pH 6.0; for Solubility, Phosphate buffer pH 7: 100 mM phosphate buffer pH 7.0; for Solubility, Phosphate buffer pH 7.5: 100 mM phosphate buffer pH7.5
# Procedure, shortened: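 Peptide stock (2 mg/ml) in water acidified to pH 2.5 with HCl was diluted 1:1 into 100 mM acetate (pH 4.0, 5.0), histidine (pH 6.0, 7.0) or phosphate (pH 6.0, 7.0, 7.5) buffer. A280 and A325 were read at about 25°C, n=1. A325 ≤ 0.02 meant solubility ≥ 1 mg/ml.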
# [3] = cAMP induction in COS7 cells expressing hCTR2, average of a minimum of 3 determinations, read-out: hCTR2 EC50
Structure (SMILES),"EC50 [1, 3]","Solubility, Acetate buffer pH 4 [2]","Solubility, Acetate buffer pH 5 [2]","Solubility, Histidine buffer pH 6 [2]","Solubility, Histidine buffer pH 7 [2]","Solubility, Phosphate buffer pH 6 [2]","Solubility, Phosphate buffer pH 7 [2]","Solubility, Phosphate buffer pH 7.5 [2]",EC50 [1]
"CC[C@H](C)[C@@H](C(=O)N[C@@H](CC(C)C)C(=O)N[C@@H](CO)C(=O)N[C@@H](CO)C(=O)N[C@H](C(=O)N[C@@H](CC(N)=O)C(=O)N[C@H](C(=O)NCC(=O)N[C@@H](CO)C(=O)N[C@@H](CC(N)=O)C(=O)N[C@H](C(=O)N1CCC[C@H]1C(N)=O)[C@@H](C)O)C(C)C)[C@@H](C)O)N(C)C(=O)CN(C)C(=O)[C@H](Cc1ccccc1)NC(=O)[C@H](CC(N)=O)NC(=O)[C@H](CC(N)=O)NC(=O)[C@H](CO)NC(=O)[C@H](CO)NC(=O)[C@H](CC(C)C)NC(=O)[C@H](Cc1ccccc1)NC(=O)[C@H](CCC(=O)O)NC(=O)[C@H](C)NC(=O)[C@H](CC(C)C)NC(=O)[C@H](CCCNC(=N)N)NC(=O)[C@H](CCC(N)=O)NC(=O)[C@@H](NC(=O)[C@H](C)NC(=O)[C@@H]1CSSC[C@H](NC(=O)[C@H](CCCNC(=N)N)NC(=O)CC[C@H](NC(=O)CCCCCCCCCCCCCCCCCCC(=O)O)C(=O)O)C(=O)N[C@@H](CC(N)=O)C(=O)N[C@@H]([C@@H](C)O)C(=O)N[C@@H](C)C(=O)N[C@@H]([C@@H](C)O)C(=O)N1)[C@@H](C)O [Compound 42, [19CD]-isoGlu-RC()NTATC()ATQRLAEFLSSNNF-Gly(Me)-Ile(Me)-LSSTNVGSNTP-NH2] ({C20 diacid-γGlu}-RCNTATCATQRLAEFLSSNNF[Sar][NMeI]LSSTNVGSNTP-NH2; disulfide 2-7)",0.12 nM,SS (SS indicates solubility ≥ 1mg/ml),SS (SS indicates solubility ≥ 1mg/ml),SS (SS indicates solubility ≥ 1mg/ml),SS (SS indicates solubility ≥ 1mg/ml),SS (SS indicates solubility ≥ 1mg/ml),SS (SS indicates solubility ≥ 1mg/ml),SS (SS indicates solubility ≥ 1mg/ml),
"CC[C@H](C)[C@@H](C(=O)N[C@@H](CC(C)C)C(=O)N[C@@H](CO)C(=O)N[C@@H](CO)C(=O)N[C@H](C(=O)N[C@@H](CC(N)=O)C(=O)N[C@H](C(=O)NCC(=O)N[C@@H](CO)C(=O)N[C@@H](CC(N)=O)C(=O)N[C@H](C(=O)N1CCC[C@H]1C(N)=O)[C@@H](C)O)C(C)C)[C@@H](C)O)N(C)C(=O)[C@H](C)NC(=O)CN(C)C(=O)[C@H](Cc1ccccc1)NC(=O)[C@H](CC(N)=O)NC(=O)[C@H](CO)NC(=O)[C@H](CO)NC(=O)[C@H](Cc1c[nH]cn1)NC(=O)[C@H](Cc1c[nH]cn1)NC(=O)[C@H](CC(C)C)NC(=O)[C@H](Cc1ccccc1)NC(=O)[C@H](CCC(=O)O)NC(=O)[C@H](C)NC(=O)[C@H](CC(C)C)NC(=O)[C@H](CCCNC(=N)N)NC(=O)[C@H](CCC(N)=O)NC(=O)[C@@H](NC(=O)[C@H](C)NC(=O)[C@@H]1CSSC[C@H](NC(=O)[C@H](CCCNC(=N)N)NC(=O)CC[C@H](NC(=O)CCCCCCCCCCCCCCCCCCC(=O)O)C(=O)O)C(=O)N[C@@H](CC(N)=O)C(=O)N[C@@H]([C@@H](C)O)C(=O)N[C@@H](C)C(=O)N[C@@H]([C@@H](C)O)C(=O)N1)[C@@H](C)O [Compound 44, [19CD]-isoGlu-RC()NTATC()ATQRLAEFLHHSSNF-Gly(Me)-A-Ile(Me)-LSSTNVGSNTP-NH2] ({C20 diacid-γGlu}-RCNTATCATQRLAEFLHHSSNF[Sar]A[NMeI]LSSTNVGSNTP-NH2; disulfide 2-7)",0.15 nM,SS (SS indicates solubility ≥ 1mg/ml),II (II indicates solubility ≤ 1 mg/ml),II (II indicates solubility ≤ 1 mg/ml),SS (SS indicates solubility ≥ 1mg/ml),SS (SS indicates solubility ≥ 1mg/ml),SS (SS indicates solubility ≥ 1mg/ml),SS (SS indicates solubility ≥ 1mg/ml),
"CC[C@H](C)[C@@H](C(=O)N[C@@H](CC(C)C)C(=O)N[C@@H](CO)C(=O)N[C@@H](CO)C(=O)N[C@H](C(=O)N[C@@H](CC(N)=O)C(=O)N[C@H](C(=O)NCC(=O)N[C@@H](CO)C(=O)N[C@@H](CC(N)=O)C(=O)N[C@H](C(=O)N1CCC[C@H]1C(N)=O)[C@@H](C)O)C(C)C)[C@@H](C)O)N(C)C(=O)[C@H](C)NC(=O)CN(C)C(=O)[C@H](Cc1ccccc1)NC(=O)[C@H](CC(N)=O)NC(=O)[C@H](CC(N)=O)NC(=O)[C@H](CO)NC(=O)[C@H](Cc1c[nH]cn1)NC(=O)[C@H](Cc1c[nH]cn1)NC(=O)[C@H](CC(C)C)NC(=O)[C@H](Cc1ccccc1)NC(=O)[C@H](CCC(=O)O)NC(=O)[C@H](C)NC(=O)[C@H](CC(C)C)NC(=O)[C@H](CCCNC(=N)N)NC(=O)[C@H](CCC(N)=O)NC(=O)[C@@H](NC(=O)[C@H](C)NC(=O)[C@@H]1CSSC[C@H](NC(=O)[C@H](CCCNC(=N)N)NC(=O)CC[C@H](NC(=O)CCCCCCCCCCCCCCCCCCC(=O)O)C(=O)O)C(=O)N[C@@H](CC(N)=O)C(=O)N[C@@H]([C@@H](C)O)C(=O)N[C@@H](C)C(=O)N[C@@H]([C@@H](C)O)C(=O)N1)[C@@H](C)O [Compound 45, [19CD]-isoGlu-RC()NTATC()ATQRLAEFLHHSNNF-Gly(Me)-A-Ile(Me)-LSSTNVGSNTP-NH2] ({C20 diacid-γGlu}-RCNTATCATQRLAEFLHHSNNF[Sar]A[NMeI]LSSTNVGSNTP-NH2; disulfide 2-7)",,II (II indicates solubility ≤ 1 mg/ml),II (II indicates solubility ≤ 1 mg/ml),II (II indicates solubility ≤ 1 mg/ml),II (II indicates solubility ≤ 1 mg/ml),II (II indicates solubility ≤ 1 mg/ml),II (II indicates solubility ≤ 1 mg/ml),II (II indicates solubility ≤ 1 mg/ml),0.14 nM
"CC[C@H](C)[C@@H](C(=O)N[C@@H](CC(C)C)C(=O)N[C@@H](CO)C(=O)N[C@@H](CO)C(=O)N[C@H](C(=O)N[C@@H](CC(N)=O)C(=O)N[C@H](C(=O)NCC(=O)N[C@@H](CO)C(=O)N[C@@H](CC(N)=O)C(=O)N[C@H](C(=O)N1CCC[C@H]1C(N)=O)[C@@H](C)O)C(C)C)[C@@H](C)O)N(C)C(=O)CN(C)C(=O)[C@H](Cc1ccccc1)NC(=O)[C@H](CC(N)=O)NC(=O)[C@H](CC(N)=O)NC(=O)[C@H](CO)NC(=O)[C@H](Cc1c[nH]cn1)NC(=O)[C@H](Cc1c[nH]cn1)NC(=O)[C@H](CC(C)C)NC(=O)[C@H](Cc1ccccc1)NC(=O)[C@H](CCC(=O)O)NC(=O)[C@H](C)NC(=O)[C@H](CC(C)C)NC(=O)[C@H](CCCNC(=N)N)NC(=O)[C@H](CCC(N)=O)NC(=O)[C@@H](NC(=O)[C@H](C)NC(=O)[C@@H]1CSSC[C@H](NC(=O)[C@H](CCCNC(=N)N)NC(=O)CC[C@H](NC(=O)CCCCCCCCCCCCCCCCCCC(=O)O)C(=O)O)C(=O)N[C@@H](CC(N)=O)C(=O)N[C@@H]([C@@H](C)O)C(=O)N[C@@H](C)C(=O)N[C@@H]([C@@H](C)O)C(=O)N1)[C@@H](C)O [Compound 46, [19CD]-isoGlu-RC()NTATC()ATQRLAEFLHHSNNF-Gly(Me)-Ile(Me)-LSSTNVGSNTP-NH2] ({C20 diacid-γGlu}-RCNTATCATQRLAEFLHHSNNF[Sar][NMeI]LSSTNVGSNTP-NH2; disulfide 2-7)",0.15 nM,II (II indicates solubility ≤ 1 mg/ml),II (II indicates solubility ≤ 1 mg/ml),II (II indicates solubility ≤ 1 mg/ml),II (II indicates solubility ≤ 1 mg/ml),II (II indicates solubility ≤ 1 mg/ml),II (II indicates solubility ≤ 1 mg/ml),II (II indicates solubility ≤ 1 mg/ml),
